Results from patent US6352982B1, “4,1-benzoxazepines, their analogues, and their use as somatostatin agonists” (Takeda Chemical Industries, Ltd., priority 1997, dated 2002).
Counter-ions that a name gives are not always drawn.

Columns and labels:
Assay in all cases: Binding inhibition of 125I-somatostatin, CHO cell membrane fraction
[1] = target: T1, human somatostatin receptor SSTR1 (Homo sapiens, UniProt P30872); conditions: 125I-somatostatin binding, 25° C. for 60 minutes, read-out: Activities for human somatostatin receptor (IC50 value) SSTR1
T1 construct: expressed in transfected cells; host or cells: CHO (dhfr-) cells, strain SSTR1-8-3
Experimental: (§1) A human somatostatin receptor expression CHO cell strain, SSTR1-8-3, SSTR2-HS5-9, SSTR3-15-19, SSTR4-1-2 or SSTR5-32-4 (10^9), was suspended in a phosphate buffered saline containing 5mM of EDTA (PBS-EDTA). The suspension was centrifuged. To the cell pellet was added 10 ml of a homogenation buffer solution for cells (10 mM NaHCO3, 5 mM EDTA, pH=7.5). The mixture was homogenized by a Politron homogenizer and centrifuged at 400×g for 15 minutes. The supernatant obtained was farther centrifuged at 100,000×g for an hour to obtain a precipitate of the membrane fraction. The precipitate was suspended in 2 ml of a buffer solution for assay ([…], 0.1% of BSA (bovine serum albumin) and […], 1 μ/ml of pepstatin, 20 μg/ml of leupeptin, 10 μg/ml of phosphoramide, pH=7.5). The suspension was centrifuged at […] for an hour. The membrane fraction recovered as precipitate was suspended again in 20 ml of buffer solution for assay. The suspension was placed in tubes and stored at −80° C. The suspension was thawed when used, and used at every use.
(§2) The membrane fraction prepared in Example 1 was diluted with a buffer solution for assay to adjust the concentration to 3 μg/ml. The diluate was placed in tubes each in quantity of 173 μl. To this were simultaneously added 2 μl of a solution of a compound in DMSO and 25μl of a 200pM radioisotope-labeled somatostatin (^125I-somatostatin: Amersham) solution. For measurement of the maximum binding, a reaction mixture added with 2 μl of DMSO and 25μl of a 200pM ^125I-somatostatin solution was prepared. For measurement of non-specific binding, a reaction mixture added with 2 μl of a 100 μM somatostatin solution diluted in DMSO and 25 μl of a 200pM ^125I-somatostatin solution was prepared at the same time. The mixtures were allowed to react at 25° C. for 60 minutes. Then, the reaction mixture was filtered by aspiration using a GF/B glass fiber filter paper (Whatman) treated with polyethylenimine. After filtration, the radioactivity of 125I-somatostatin remaining on the filter paper was measured by a γ-counter.
(§3) The binding rate (%) of each compound was calculated by the formula: […]
(§4) (where PBM: Percent maximum Binding, B: radioactivity when a compound was added, Bo: maximum binding radioactivity, NSB: non-specific binding radioactivity). The binding rates were calculated by changing the concentrations of the compound to obtain the 50% inhibiting concentration of the compound (IC50 value) by the Hil l plots.
(§5) The activities (IC50 value, μM) of the compounds for each human somatostatin receptor obtained by the above method are shown in the following Table 5.

[2] = target: T2, human somatostatin receptor SSTR2 (Homo sapiens, UniProt P30874); conditions: 125I-somatostatin binding, 25° C. for 60 minutes, read-out: Activities for human somatostatin receptor (IC50 value) SSTR2
T2 construct: expressed in transfected cells; host or cells: CHO (dhfr-) cells, strain SSTR2-HS5-9
Experimental: as §1, §2, §3, §4, §5

[3] = target: T3, human somatostatin receptor SSTR3 (Homo sapiens, UniProt P32745); conditions: 125I-somatostatin binding, 25° C. for 60 minutes, read-out: Activities for human somatostatin receptor (IC50 value) SSTR3
T3 construct: expressed in transfected cells; host or cells: CHO (dhfr-) cells, strain SSTR3-15-19
Experimental: as §1, §2, §3, §4, §5

[4] = target: T4, human somatostatin receptor SSTR4 (Homo sapiens, UniProt P31391); conditions: 125I-somatostatin binding, 25° C. for 60 minutes, read-out: Activities for human somatostatin receptor (IC50 value) SSTR4
T4 construct: expressed in transfected cells; host or cells: CHO (dhfr-) cells, strain SSTR4-1-2
Experimental: as §1, §2, §3, §4, §5

[5] = target: T5, human somatostatin receptor SSTR5 (Homo sapiens, UniProt P35346); conditions: 125I-somatostatin binding, 25° C. for 60 minutes, read-out: Activities for human somatostatin receptor (IC50 value) SSTR5
T5 construct: expressed in transfected cells; host or cells: CHO (dhfr-) cells, strain SSTR5-3-2-4 (also printed SSTR5-32-4)
Experimental: as §1, §2, §3, §4, §5

T5 sequence (P35346 whole entry): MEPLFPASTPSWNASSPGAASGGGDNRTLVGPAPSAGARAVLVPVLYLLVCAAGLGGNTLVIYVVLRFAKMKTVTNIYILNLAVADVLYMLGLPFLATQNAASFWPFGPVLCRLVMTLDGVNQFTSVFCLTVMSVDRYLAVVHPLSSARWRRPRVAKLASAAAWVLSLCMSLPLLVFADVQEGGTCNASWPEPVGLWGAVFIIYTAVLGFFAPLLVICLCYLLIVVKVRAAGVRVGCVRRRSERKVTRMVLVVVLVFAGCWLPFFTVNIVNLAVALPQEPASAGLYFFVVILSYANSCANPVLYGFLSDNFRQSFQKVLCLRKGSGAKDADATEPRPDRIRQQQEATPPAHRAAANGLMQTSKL
T4 sequence (P31391 whole entry): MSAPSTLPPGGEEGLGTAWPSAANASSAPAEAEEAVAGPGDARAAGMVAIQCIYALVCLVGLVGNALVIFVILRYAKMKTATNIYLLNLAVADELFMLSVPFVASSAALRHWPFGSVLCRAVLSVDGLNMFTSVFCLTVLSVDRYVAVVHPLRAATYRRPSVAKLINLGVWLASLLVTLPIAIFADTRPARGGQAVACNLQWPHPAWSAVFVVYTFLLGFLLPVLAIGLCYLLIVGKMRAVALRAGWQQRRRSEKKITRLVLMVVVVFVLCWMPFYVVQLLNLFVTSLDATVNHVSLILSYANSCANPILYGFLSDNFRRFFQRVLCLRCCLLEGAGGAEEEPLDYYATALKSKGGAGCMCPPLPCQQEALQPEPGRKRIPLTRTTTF
T3 sequence (P32745 whole entry): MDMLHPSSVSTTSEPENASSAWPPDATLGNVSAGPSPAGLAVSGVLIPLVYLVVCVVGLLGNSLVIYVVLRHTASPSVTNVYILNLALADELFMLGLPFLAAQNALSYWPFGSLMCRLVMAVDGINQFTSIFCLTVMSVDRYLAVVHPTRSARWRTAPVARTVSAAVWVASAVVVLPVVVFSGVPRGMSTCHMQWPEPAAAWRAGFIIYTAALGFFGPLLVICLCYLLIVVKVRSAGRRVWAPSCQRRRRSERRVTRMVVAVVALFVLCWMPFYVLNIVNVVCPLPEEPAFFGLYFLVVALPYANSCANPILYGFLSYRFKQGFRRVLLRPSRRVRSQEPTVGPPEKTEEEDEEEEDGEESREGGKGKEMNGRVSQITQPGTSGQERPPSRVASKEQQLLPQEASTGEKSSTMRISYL
T1 sequence (P30872 whole entry): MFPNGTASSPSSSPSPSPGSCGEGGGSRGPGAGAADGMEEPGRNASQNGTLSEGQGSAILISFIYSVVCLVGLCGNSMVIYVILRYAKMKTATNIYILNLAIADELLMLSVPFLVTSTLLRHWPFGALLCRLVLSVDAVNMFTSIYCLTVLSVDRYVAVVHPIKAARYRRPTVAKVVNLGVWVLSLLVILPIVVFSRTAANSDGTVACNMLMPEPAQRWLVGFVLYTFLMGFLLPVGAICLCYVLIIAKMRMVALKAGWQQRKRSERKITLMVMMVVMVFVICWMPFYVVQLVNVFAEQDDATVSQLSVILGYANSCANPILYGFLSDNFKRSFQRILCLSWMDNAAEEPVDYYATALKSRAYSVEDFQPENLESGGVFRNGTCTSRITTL
T2 sequence (P30874 whole entry): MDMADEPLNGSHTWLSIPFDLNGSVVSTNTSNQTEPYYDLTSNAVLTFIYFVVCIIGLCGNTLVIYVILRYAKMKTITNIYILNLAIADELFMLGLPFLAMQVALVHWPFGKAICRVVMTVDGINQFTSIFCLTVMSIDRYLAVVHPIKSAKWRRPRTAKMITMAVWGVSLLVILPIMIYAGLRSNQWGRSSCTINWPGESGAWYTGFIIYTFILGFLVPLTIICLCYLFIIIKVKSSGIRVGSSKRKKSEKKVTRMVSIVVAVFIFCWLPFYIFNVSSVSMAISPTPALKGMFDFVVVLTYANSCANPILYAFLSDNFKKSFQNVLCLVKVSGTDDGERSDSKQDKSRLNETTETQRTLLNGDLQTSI

IC50 [1] [nM] | IC50 [2] [nM] | IC50 [3] [nM] | IC50 [4] [nM] | IC50 [5] [nM] | Compound
900 | 500 | 4 | 200 | 9 | CC(C)(N)c1cccc(C2OC(CC(=O)NCc3ccccc3F)C(=O)N(Cc3ccc(-c4ccccc4)cc3)c3ccc(Cl)cc32)c1 (stereo not drawn) [Example 93, 3,5-Trans-N-(2-fluorobenzyl)-5-[3-[(1-amino-1-methyl)ethyl]phenyl]-1-(4-biphenylmethyl)-7-chloro-2-oxo-1,2,3,5-tetrahydro-4,1-benzoxazepine-3-acetamide•monohydrochloride]
> 1000 | > 1000 | 40 | 1000 | 7 | COc1ccc(CN2C(=O)C(CC(=O)NCc3ccccc3F)OC(c3ccc(CN)s3)c3cc(Cl)ccc32)cc1 (stereo not drawn) [Example 91, 3,5-Trans-N-(2-fluorobenzyl)-5-(2-aminomethylthiophen-5-yl)-7-chloro-1-(4-methoxybenzyl)-2-oxo-1,2,3,5-tetrahydro-4,1-benzoxazepine-3-acetamide•monohydrochloride]

Second part, the molecule before the results:

Compound | IC50 [1] [nM] | IC50 [2] [nM] | IC50 [3] [nM] | IC50 [4] [nM] | IC50 [5] [nM]
CC(C)(C)CN1C(=O)[C@H](CC(=O)NCc2ccccc2F)O[C@@H](c2cccc(CN)c2)c2cc(Cl)ccc21 [Example 25, (3S,5S)-N-(2-fluorobenzyl)-5-(3-aminomethylphenyl)-7-chloro-1-neopentyl-2-oxo-1,2,3,5-tetrahydro-4,1-benzoxazepine-3-acetamide•monohydrochloride] | 8000 | 6000 | 300 | 4000 | 7
NCc1ccc(C2OC(CC(=O)NCc3ccccc3F)C(=O)N(Cc3ccc(-c4ccccc4)cc3)c3ccc(Cl)cc32)cc1 (stereo not drawn) [Example 87, 3,5-Trans-N-(2-fluorobenzyl)-5-(4-aminomethylphenyl)-1-(4-biphenylmethyl)-7-chloro-2-oxo-1,2,3,5-tetrahydro-4,1-benzoxazepine-3-acetamide•monohydrochloride] | 800 | 800 | 20 | 300 | 1
CC(C)(C)CN1C(=O)[C@@H](CC(=O)NCc2ccccc2F)O[C@H](c2cccc(CN)c2)c2cc(Cl)ccc21 [Example 26, (3R,5R)-N-(2-fluorobenzyl)-5-(3-aminomethylphenyl)-7-chloro-1-neopentyl-2-oxo-1,2,3,5-tetrahydro-4,1-benzoxazepine-3-acetamide•monohydrochloride] | 10000 | > 10000 | 7000 | 4000 | 600
